Assay results: article PMC3479662 (Journal of medicinal chemistry, 2012)
pKi: −log10 of the molar value. Marks after values point to notes of the source that are not given here.

Experiments:
rat A2AAR = settings: ref Jacobson et al.[39]; cited from earlier work
rat A1AR = settings: ref Jacobson et al.[39]; cited from earlier work
A3AR = settings: read-out: Affinity Ki, A3; human unless noted; ref de Zwaart et al.[38]; cited from earlier work
hA1AR [1] = biological target: T1, hA1AR (Homo sapiens, UniProt P30542); settings: for agonist character at the A1AR (full / partial agonist): cyclic AMP assay, hA1AR
T1 sequence (P30542 1-326): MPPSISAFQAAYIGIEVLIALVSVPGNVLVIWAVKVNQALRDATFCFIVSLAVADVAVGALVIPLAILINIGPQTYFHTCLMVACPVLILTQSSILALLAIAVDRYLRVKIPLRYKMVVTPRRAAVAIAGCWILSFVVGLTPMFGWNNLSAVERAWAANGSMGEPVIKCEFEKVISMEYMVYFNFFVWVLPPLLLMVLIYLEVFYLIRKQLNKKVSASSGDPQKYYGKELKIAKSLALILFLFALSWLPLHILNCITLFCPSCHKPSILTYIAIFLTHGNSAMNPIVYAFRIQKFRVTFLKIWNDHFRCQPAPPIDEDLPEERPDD

hA2AAR = hA2AAR (Homo sapiens, UniProt P29274); assay: Stimulation of cyclic AMP production in A2AAR-expressing CHO cells; assay type: cell-based; settings: cyclic AMP assay
hA2AAR, sequence (P29274 whole entry): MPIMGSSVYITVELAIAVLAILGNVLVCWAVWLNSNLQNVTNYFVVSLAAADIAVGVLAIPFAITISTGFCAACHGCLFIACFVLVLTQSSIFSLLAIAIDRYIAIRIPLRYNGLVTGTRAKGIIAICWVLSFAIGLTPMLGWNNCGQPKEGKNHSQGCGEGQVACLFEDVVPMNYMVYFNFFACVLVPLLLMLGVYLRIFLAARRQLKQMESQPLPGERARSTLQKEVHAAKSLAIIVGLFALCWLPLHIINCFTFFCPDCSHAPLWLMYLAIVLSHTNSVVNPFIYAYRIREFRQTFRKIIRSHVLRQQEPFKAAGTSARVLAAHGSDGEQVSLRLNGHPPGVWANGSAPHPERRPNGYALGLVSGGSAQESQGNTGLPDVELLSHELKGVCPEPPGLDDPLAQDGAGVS

hA1AR [2] = biological target: T1, hA1AR; assay: Radioligand binding at hA1AR, [3H]R-PIA, membranes of CHO cells; settings: human orthologue more potent than rat

SMILES	pKi (A3AR)	agonist character at the A1AR (full / partial agonist) (hA1AR [1])	also measured
NCCNC(=O)[C@H]1O[C@@H](n2cnc3c(N)ncnc32)[C@H](O)[C@@H]1O [Compound 11]			% inhibition, A2A (rat) (rat A2AAR): > 10%; % inhibition, A1 (rat) (rat A1AR): (>10%, rat) ^e
Nc1ncnc2c1ncn2[C@@H]1O[C@H](C(=O)NCCCl)[C@@H](O)[C@H]1O [Compound 6, reference compound]	6.48		
Nc1ncnc2c1ncn2[C@@H]1O[C@H](C(=O)NC2CCC2)[C@@H](O)[C@H]1O [Compound 18]	7.64	partial agonist	agonist character at the A2AAR (full agonist) (hA2AAR): full agonists
CCNC(=O)[C@H]1O[C@@H](n2cnc3c(N)ncnc32)[C@H](O)[C@@H]1O [Compound 1, 5′-N-ethylcarboxamidoadenosine, reference compound]			Activation of A1, % of 1, 10 μM (hA1AR [1]; single point at 10 μM, effect of full agonist 1 = 100%, hA1AR CHO cells): 100 % of 1
Nc1ncnc2c1ncn2[C@@H]1O[C@H](C(=O)NCC(F)(F)F)[C@@H](O)[C@H]1O [Compound 5]		partial agonists	difference between rat and human A1AR binding affinities (hA1AR [2]): approximately 100 fold
Nc1ncnc2c1ncn2[C@@H]1O[C@H](C(=O)NC2CC2)[C@@H](O)[C@H]1O [Compound 16, reference compound]		full agonists	agonist character at the A2AAR (full agonist) (hA2AAR): full agonists
Nc1ncnc2c1ncn2[C@@H]1O[C@H](C(=O)NC2CCCC2)[C@@H](O)[C@H]1O [Compound 22]	7.49	full agonists	
